{"source": "patent US20200277404A1", "about": "“COMPOSITIONS AND METHODS FOR REGULATION OF IMMUNE CELL ACTIVATION AND PROLIFERATION” (MONELL CHEMICAL SENSES CENTER, priority 2017, published 2020)", "system": "bitter receptors (T2Rs)", "assay": "Expression of bitter receptors (T2Rs) in Raw264.7 cells treated with LPS or DEX", "assay_type": "cell-based", "conditions": "mouse monocyte/macrophage Raw264.7 cell line, FIG. 4", "experimental": "The mouse monocyte/macrophage Raw264.7 cell line was also used to study T2Rs. Raw264.7 cells were treated with lipopolysaccharide (LPS) and dexamethasone (DEX)."}
{"substance": "lipopolysaccharide [LPS]", "values": [{"measurement": "expression levels of some bitter receptors (T2Rs)", "value": "strongly induced"}]}
